Data from paper PMC7961786, “Magic Peptide: Unique Properties of the LRR11 Peptide in the Activation of Leukotriene Synthesis in Human Neutrophils” (International Journal of Molecular Sciences, 2021).

Assays:
[1] = tested on: 5′-biotinylated C-CpG; test: TSM acoustic biosensor, peptide binding to immobilized C-CpG
Excerpt: (§1) To characterize the interaction of the studied synthetic ODNs with the LRR11 peptide, we applied the thickness shear mode (TSM) acoustic biosensor method, which is based on the investigation of ultrasonic waves in piezoelectric materials such as AT-cut quartz. This approach involved immobilizing a 5′-biotinylated ODN on the surface of TSM transducer covered by NeutrAvidin and then adding the LRR11 peptide. An unrelated peptide (URP) with a random primary structure ([…]) was used as a negative control. The measurement procedure was divided into several steps, in which each immobilization stage was followed by washing with an appropriate buffer solution; when peptide solutions at different concentrations (from 1 to 100 nM) were added to the surface-modified TSM transducer, a wash with Hanks buffer was used before increasing the peptide concentration.
(§2) Based on Langmuir isotherm Equation (1), (1) Δfcc=Δfsmaxc/KD+c where Δfs(c) is the frequency change at a certain peptide concentration under equilibrium conditions, (Δfs)max is the maximum frequency change, c is the peptide concentration, and KD is the equilibrium constant of dissociation, we estimated the (Δfs)max and KD values for binding of the LRR11 peptide to C-CpG and B-CpG (Table 3).
Using Sauerbrey’s Equation (2), (2) Δf=−2f02Δm/Aμqρq where f0 is the fundamental resonance frequency (in our case 8 MHz), Δm is the change in mass (in grams) of the adsorbed layer on the crystal surface, A is the effective crystal area (in our case 0.2 cm^2), μq = 2.947 × 10^11 g × cm^−1s^−2 is the shear modulus of elasticity, and ρq = 2.648 g × cm^−3 is the crystal density, surface concentrations of NeutrAvidin, ODN and LRR11 peptide were estimated based on changes of resonance frequency (Figure 4). According to Equation (2), the surface density of molecules, σ (in molecules/cm^2), can be calculated as σ = ΔmNA/(A × Mw), where NA is Avogadro’s number (=6.023 × 10^23 mol^−1), and Mw represents the molecular weight of the corresponding compound (NeutrAvidin: 65 kDa, 5′-biotinylated C-CpG: 7115.4 Da, and LRR11: 3421 Da). Based on this approach, we obtained the following surface concentration values: 1.94 × 10^13 cm^−2 for NeutrAvidin, 3.37 × 10^13 cm^−2 for C-CpG and 2.4 × 10^13 cm^−2 for LRR11. The NeutrAvidin has four binding sites, two of which are available for biotinylated ODN binding. This is due to the fact that the other two sites are inaccessible due to NeutrAvidin chemisorption on the TSM surface. Thus, the number of available binding sites for the ODN is 3.88 × 10^13 cm^−2. […] Therefore, the surface of the TSM transducer is practically completely saturated by C-CpG. Estimation of the surface concentration of LRR11 evidences that at 50 nM concentration of this peptide, it occupies almost 70.6% of the ODN molecules. […]

[2] = tested on: 5′-biotinylated B-CpG; test: TSM acoustic biosensor, peptide binding to immobilized B-CpG
Excerpt: as §1, §2
Eight MHz AT-cut piezoelectric quartz crystal transducer was obtained from CH Instruments, Austin, TX, USA. The transducer was covered on both sides with thin layers of gold that served as electrodes (working area 0.2 cm^2). Prior ODNs immobilization, the crystal was carefully cleaned with basic Piranha solution (29% NH3, 30% H2O and H2O2 with volumetric 1:5:1 ratio, respectively) for 25 min. After the thorough cleaning, the crystal was positioned between two silicon O-rings in a flow-through cell. The analyte was injected into the cell using a Genie Plus syringe pump (Kent Scientific, Torrington, CT, USA) at a flow rate of 50 μL/min. Each solution was applied until the resonance frequency stabilized. The surface of the transducer was first washed with deionized water, and then 125 μg/mL NeutrAvidin (WWR International GmbH, Vienna, Austria) solution in water was applied. Approximately 15 min were required to stabilize the signal at a constant NeutrAvidin flow rate. This was followed by washing with water to rinse out all non-chemisorbed NeutrAvidin molecules. Immobilization of ODN on the gold surface of the crystals is accomplished using avidin–biotin interactions. A 1 μM 5′-biotinylated ODN solution was injected over the neutravidin-modified surface and subsequently the crystal was washed again with water. The system was then equilibrated using Hanks buffer solution. This buffer was suitable for studying LRR11–ODN binding. Then LRR11 was used at concentrations of 1, 5, 10, 50 and 100 nM […] in Hanks buffer. After each addition of LRR11, the sensor surface was washed with Hanks buffer and LRR11 with the higher concentration was added. All binding experiments were carried out at room temperature. Buffer and sample solutions were introduced in a flow-through format. A network analyzer 8712ES (Agilent Technologies, Santa Clara, CA, USA) was used to measure the impedance properties of the sensor and determine fS and Rm.

| Substance | change of ∆fs at low LRR11 concentrations ([1]; 1, 5, 10 nM LRR11, C-CpG) | change of ∆fs at low LRR11 concentrations ([2]; 1, 5, 10 nM LRR11, B-CpG) | Kd ([2]; LRR11-B-CpG complex, Langmuir fit, Hanks buffer, room temperature, LRR11 1-100 nM, three independent experiments) | KA ([1]; LRR11-C-CpG complex, KA = 1/KD) | −(Δfs)max ([1]; LRR11 to immobilized C-CpG, Langmuir fit, Hanks buffer, room temperature, LRR11 1-100 nM, three independent experiments) |
| --- | --- | --- | --- | --- | --- |
| QLRKLNLSFNYQKRVSFAHLSLAPSFGSLV [LRR11, 30 amino acid peptide from leucine-rich repeat of TLR9] | not significant or small changes of ∆fs | not significant or small changes of ∆fs | 55.1 ± 17.4 nM | – | – |
| 5′-tcgtcgttttcggcgcgcgccg-3′ (DNA TCGTCGTTTTCGGCGCGCGCCG; chemistry not fully specified) [C-CpG] | – | – | – | 0.017 ± 0.007 nM⁻¹ | 33.9 ± 6.4 Hz |
